Converted amounts (≈) assume the structure as drawn. Bridge positions count the residues as written; N and C are the ends. Square brackets hold non-standard residues; d marks the D form. Peptide text beside a SMILES is read from it. * marks the point of attachment. Ileψ(thiazoline)Cys = CC[C@H](C)[C@H](N)C1=N[C@H](C(=O)*)CS1; dOrn = NCCC[C@@H](N)C(=O)O
How the values were obtained:
[1] = test system: Mycobacterium tuberculosis; test: Antimycobacterial activity against Mycobacterium tuberculosis H37Rv 331/88 after 14 days by microdilution method; type: functional; details: H37Rv 331/88, 336 h
[2] = test system: Mycobacterium tuberculosis; test: Antimycobacterial activity against Mycobacterium tuberculosis H37Rv 331/88 after 21 days by microdilution method; type: functional; details: H37Rv 331/88, 504 h
Mycobacterium avium [3] = test: Antimycobacterial activity against INH,RIF,OFX,EMB-resistant Mycobacterium avium 330/88 after 14 days by microdilution method; type: functional; details: 330/88, 336 h
Mycobacterium avium [4] = test: Antimycobacterial activity against INH,RIF,OFX,EMB-resistant Mycobacterium avium 330/88 after 21 days by microdilution method; type: functional; details: 330/88, 504 h
Mycobacterium kansasii [5] = test: Antimycobacterial activity against Mycobacterium kansasii 235/80 after 7 days by microdilution method; type: functional; details: 235/80, 168 h
Mycobacterium kansasii [6] = test: Antimycobacterial activity against Mycobacterium kansasii 235/80 after 14 days by microdilution method; type: functional; details: 235/80, 336 h
Mycobacterium kansasii [7] = test: Antimycobacterial activity against Mycobacterium kansasii 235/80 after 21 days by microdilution method; type: functional; details: 235/80, 504 h
Mycobacterium kansasii [8] = test: Antimycobacterial activity against Mycobacterium kansasii 6509/96 after 7 days by microdilution method; type: functional; details: 6509/96, 168 h
Mycobacterium kansasii [9] = test: Antimycobacterial activity against Mycobacterium kansasii 6509/96 after 14 days by microdilution method; type: functional; details: 6509/96, 336 h
Mycobacterium kansasii [10] = test: Antimycobacterial activity against Mycobacterium kansasii 6509/96 after 21 days by microdilution method; type: functional; details: 6509/96, 504 h
[11] = Selectivity index, ratio of IC50 for human HepG2 cells to MIC for Mycobacterium tuberculosis; type: toxicity, cell-based; details: read-out: Selectivity Index
[12] = Selectivity index, ratio of IC50 for human HepG2 cells to MIC for atypical mycobacteria
HepG2 [13] = test: Cytostatic activity against human HepG2 cells after 72 hrs by MTT assay; type: functional, cell-based; details: HepG2, 72 h
HepG2 [14] = test: Cytotoxicity against human HepG2 cells after 72 hrs by MTT assay; type: cell-based; details: HepG2, 72 h
Staphylococcus aureus [15] = test: Antibacterial activity against Staphylococcus aureus CCM 4516/08 after 24 hrs by broth microdilution method; type: functional; details: CCM 4516/08, 24 h
Staphylococcus aureus [16] = test: Antibacterial activity against Staphylococcus aureus CCM 4516/08 after 48 hrs by broth microdilution method; type: functional; details: CCM 4516/08, 48 h
Staphylococcus aureus [17] = test: Antibacterial activity against methicillin-resistant Staphylococcus aureus H 5996/08 after 24 hrs by broth microdilution method; type: functional; details: H 5996/08, 24 h
Staphylococcus aureus [18] = test: Antibacterial activity against methicillin-resistant Staphylococcus aureus H 5996/08 after 48 hrs by broth microdilution method; type: functional; details: H 5996/08, 48 h
[19] = test system: Staphylococcus epidermidis; test: Antibacterial activity against Staphylococcus epidermidis H 6966/08 after 24 hrs by broth microdilution method; type: functional; details: H 6966/08, 24 h
[20] = test system: Staphylococcus epidermidis; test: Antibacterial activity against Staphylococcus epidermidis H 6966/08 after 48 hrs by broth microdilution method; type: functional; details: H 6966/08, 48 h
Enterococcus sp. [21] = test: Antibacterial activity against Enterococcus sp. J 14365/08 after 24 hrs by broth microdilution method; type: functional; details: J 14365/08, 24 h
Enterococcus sp. [22] = test: Antibacterial activity against Enterococcus sp. J 14365/08 after 48 hrs by broth microdilution method; type: functional; details: J 14365/08, 48 h
[23] = Selectivity index, ratio of IC50 for human HepG2 cells to MIC for Staphylococci
Trichosporon asahii [24] = test: Antifungal activity against Trichosporon asahii 1188 after 24 hrs by broth microdilution method; type: functional; details: Trichosporon asahii, 1188, 24 h
Trichosporon asahii [25] = test: Antifungal activity against Trichosporon asahii 1188 after 48 hrs by broth microdilution method; type: functional; details: Trichosporon asahii, 1188, 48 h

Structure (SMILES)	MIC [1] [µM]	MIC [2] [µM]	MIC (Mycobacterium avium [3]) [µM]	MIC (Mycobacterium avium [4]) [µM]	MIC (Mycobacterium kansasii [5]) [µM]	MIC (Mycobacterium kansasii [6]) [µM]	MIC (Mycobacterium kansasii [7]) [µM]	MIC (Mycobacterium kansasii [8]) [µM]	MIC (Mycobacterium kansasii [9]) [µM]	MIC (Mycobacterium kansasii [10]) [µM]	selectivity ratio [11]	Selectivity Index [12]	IC50 (HepG2 [13]) [µM]	IC50 (HepG2 [14]) [µM]	MIC (Staphylococcus aureus [15]) [µM]	MIC (Staphylococcus aureus [16]) [µM]	MIC (Staphylococcus aureus [17]) [µM]	MIC (Staphylococcus aureus [18]) [µM]	MIC [19] [µM]	MIC [20] [µM]	other results
Nc1ccc(C(=O)O)c(O)c1 [AMINOSALICYLIC ACID]	62.5 (≈ 9.57 µg/mL)	62.5 (≈ 9.57 µg/mL)	32 (≈ 4.9 µg/mL)	125 (≈ 19.1 µg/mL)	125 (≈ 19.1 µg/mL)	1000 (≈ 153 µg/mL)	> 1000	32 (≈ 4.9 µg/mL)	125 (≈ 19.1 µg/mL)	500 (≈ 76.6 µg/mL)	35.8	<2.2									
O=C(Oc1ccc(Cl)cc1C(=O)Nc1ccc(Cl)c(Cl)c1)c1ccccc1	1 (≈ 0.421 µg/mL)	1 (≈ 0.421 µg/mL)	8 (≈ 3.37 µg/mL)	8 (≈ 3.37 µg/mL)	2 (≈ 0.841 µg/mL)	4 (≈ 1.68 µg/mL)	4 (≈ 1.68 µg/mL)	1 (≈ 0.421 µg/mL)	2 (≈ 0.841 µg/mL)	2 (≈ 0.841 µg/mL)											
O=C(Oc1ccc(Br)cc1C(=O)Nc1ccc(C(F)(F)F)cc1)c1ccc(Br)cc1	1 (≈ 0.543 µg/mL)	1 (≈ 0.543 µg/mL)	8 (≈ 4.35 µg/mL)	8 (≈ 4.35 µg/mL)	1 (≈ 0.543 µg/mL)	2 (≈ 1.09 µg/mL)	4 (≈ 2.17 µg/mL)	4 (≈ 2.17 µg/mL)	4 (≈ 2.17 µg/mL)	4 (≈ 2.17 µg/mL)	> 50	>6.25	4.2	> 50							
CC[C@H](C)[C@H](N)C1=N[C@H](C(=O)N[C@@H](CC(C)C)C(=O)N[C@H](CCC(=O)O)C(=O)N[C@H](C(=O)N[C@H]2CCCCNC(=O)[C@H](CC(N)=O)NC(=O)[C@@H](CC(=O)O)NC(=O)[C@H](Cc3cnc[nH]3)NC(=O)[C@@H](Cc3ccccc3)NC(=O)[C@H]([C@@H](C)CC)NC(=O)[C@@H](CCCN)NC2=O)[C@@H](C)CC)CS1 [BACITRACIN] ({Ileψ(thiazoline)Cys}-L[dE]IK[dOrn]I[dF]H[dD]N; lactam 4-C)														255	7.81 (≈ 11.1 µg/mL)	15.6 (≈ 22.2 µg/mL)	15.6 (≈ 22.2 µg/mL)	15.6 (≈ 22.2 µg/mL)	15.6 (≈ 22.2 µg/mL)	31.2 (≈ 44.5 µg/mL)	MIC (Enterococcus sp. [21]): 15.6 µM (≈ 22.2 µg/mL); MIC (Enterococcus sp. [22]): 62.5 µM (≈ 88.9 µg/mL); Selectivity Index [23]: 8.1
Cc1ccc(C(=O)Oc2ccc(Cl)cc2C(=O)Nc2ccc(C(F)(F)F)cc2)cc1	0.5 (≈ 0.217 µg/mL)	0.5 (≈ 0.217 µg/mL)	4 (≈ 1.74 µg/mL)	4 (≈ 1.74 µg/mL)	1 (≈ 0.434 µg/mL)	1 (≈ 0.434 µg/mL)	2 (≈ 0.868 µg/mL)	1 (≈ 0.434 µg/mL)	2 (≈ 0.868 µg/mL)	2 (≈ 0.868 µg/mL)	> 100	>12.5	6.9	> 50	> 250	> 250	> 250	> 250	> 250	> 250	MIC (Enterococcus sp. [21]): > 250 µM; MIC (Enterococcus sp. [22]): > 250 µM; MIC (Trichosporon asahii [24]): > 250 µM; MIC (Trichosporon asahii [25]): > 250 µM
O=C(Oc1ccc(Br)cc1C(=O)Nc1ccc(C(F)(F)F)cc1)c1ccc(C(F)(F)F)cc1	1 (≈ 0.532 µg/mL)	1 (≈ 0.532 µg/mL)	2 (≈ 1.06 µg/mL)	4 (≈ 2.13 µg/mL)	1 (≈ 0.532 µg/mL)	2 (≈ 1.06 µg/mL)	4 (≈ 2.13 µg/mL)	1 (≈ 0.532 µg/mL)	2 (≈ 1.06 µg/mL)	4 (≈ 2.13 µg/mL)											
O=C(Oc1ccc(Cl)cc1C(=O)Nc1ccc(C(F)(F)F)cc1)c1ccccc1	0.5 (≈ 0.21 µg/mL)	1 (≈ 0.42 µg/mL)	4 (≈ 1.68 µg/mL)	4 (≈ 1.68 µg/mL)	1 (≈ 0.42 µg/mL)	1 (≈ 0.42 µg/mL)	1 (≈ 0.42 µg/mL)	2 (≈ 0.84 µg/mL)	2 (≈ 0.84 µg/mL)	2 (≈ 0.84 µg/mL)											
Cc1ccc(C(=O)Oc2ccc(Br)cc2C(=O)Nc2ccc(C(F)(F)F)cc2)cc1	1 (≈ 0.478 µg/mL)	1 (≈ 0.478 µg/mL)	4 (≈ 1.91 µg/mL)	8 (≈ 3.83 µg/mL)	1 (≈ 0.478 µg/mL)	2 (≈ 0.957 µg/mL)	2 (≈ 0.957 µg/mL)	2 (≈ 0.957 µg/mL)	2 (≈ 0.957 µg/mL)	4 (≈ 1.91 µg/mL)	> 50	>6.25	26.8	> 50	> 125	> 125	> 125	> 125	> 125	> 125	MIC (Enterococcus sp. [21]): > 125 µM; MIC (Enterococcus sp. [22]): > 125 µM; MIC (Trichosporon asahii [24]): > 125 µM; MIC (Trichosporon asahii [25]): > 125 µM
O=C(Oc1ccc(Cl)cc1C(=O)Nc1ccc(Cl)c(Cl)c1)c1ccc(C(F)(F)F)cc1	1 (≈ 0.489 µg/mL)	1 (≈ 0.489 µg/mL)	4 (≈ 1.95 µg/mL)	4 (≈ 1.95 µg/mL)	1 (≈ 0.489 µg/mL)	2 (≈ 0.977 µg/mL)	4 (≈ 1.95 µg/mL)	1 (≈ 0.489 µg/mL)	2 (≈ 0.977 µg/mL)	4 (≈ 1.95 µg/mL)											
O=C(Oc1ccc(Br)cc1C(=O)Nc1ccc(C(F)(F)F)cc1)c1ccccc1	1 (≈ 0.464 µg/mL)	1 (≈ 0.464 µg/mL)	4 (≈ 1.86 µg/mL)	4 (≈ 1.86 µg/mL)	2 (≈ 0.928 µg/mL)	2 (≈ 0.928 µg/mL)	2 (≈ 0.928 µg/mL)	2 (≈ 0.928 µg/mL)	2 (≈ 0.928 µg/mL)	2 (≈ 0.928 µg/mL)											

— ChEMBL document CHEMBL3396981, “Synthesis and in vitro biological evaluation of 2-(phenylcarbamoyl)phenyl 4-substituted benzoates” (Bioorg Med Chem, 2015)
